In brackets after ≈: the same amount, converted by molar mass.

The subject of experiment [1] is C. albicans SC5314. The experiment can be described thus: Antifungal susceptibility testing, microbroth dilution MIC. The format is cell-based. The following applies: Candida albicans, SC5314; C. albicans wild-type strain; RPMI1640, 35°C, 24 h; read-out: MIC (μg/mL) against fungi SC5314. An outline of the steps:
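CLSI microbroth dilution in RPMI1640, final drug range 0.0156–64 μg/mL. Inocula 1 × 10^3 CFU/mL for C. albicans and C. neoformans, 1 × 10^4 CFU/mL for A. fumigatus; 35°C for 24 h (C. albicans) or 48 h (C. neoformans, A. fumigatus). MIC read as visible growth inhibition versus control, in duplicate.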
For orientation: Broth dilution looks for growth in wells or tubes with falling amounts of substance.

The test system of experiment [2] is C. albicans SC5314. The experiment can be described thus: MIC of 19ak in the presence of H2O2. The format is cell-based. The settings on record: Candida albicans, read-out: MIC against C. albicans SC5314 (Table S3). As to the method: Influence of oxidant or antioxidant molecules on 19ak activity. The MIC of
19ak in the presence of 1–2 mM H2O2 was measured using the broth microdilution
assay as described above. […]

In experiment [3] the test system is C. albicans SC5314. Briefly: CCK-8 reduction assay, mitochondrial dehydrogenase activity. The format is cell-based, Candida albicans. The following applies: 0.125 μg/mL to 5 μg/mL. As to the method: The Cell Counting Kit-8
(CCK-8) assay is used to measure the dehydrogenase activity in the mitochondria of C. albicans or mammalian cells. C. albicans SC5314 (5 × 10^6 cells/mL in RPMI1640 medium) were treated with different concentrations of 19ak in 96-well plates at 30°C for 12 h or 48 h. 10 μL of CCK-8 solution was added to each well. After an additional 2 h of incubation, OD450 in each well was detected with a microplate reader. […]

Experiment [4] concerns C. albicans SC5314. The experiment can be described thus: Time-growth curve with antioxidants. In kind it is cell-based, Candida albicans. The settings on record: SC medium, 5 mM NAC or 5 mM Tu, 0.25 or 0.5 μg/mL 19ak, 15 h. The protocol: albicans SC5314 cells (1 × 10^6 cells/mL) were challenged with various doses of 19ak and incubated at 30°C for 6 h, followed by staining with 20 μM Rh123 for 30 min in the dark and detection by flow cytometry (Becton Dickinson, CA, USA).
Measurement of intracellular ATP production. To explore whether 19ak affects intracellular ATP content by damaging mitochondria, we treated C. albicans SC5314 cells (1 × 10^6 cells/mL) with different doses of 19ak. After lysing the cells in lysis buffer, ATP levels were measured with the ATP Assay Kit (Beyotime, Haimen, China) according to the manufacturer's instructions. Cellular protein concentrations were determined using a BCA Protein Assay Kit (Beyotime, Haimen, China). The intracellular ATP content was calculated by referring to a standard curve and normalized using the protein content of each sample for expression as nmol/mg […]
ROS production assay. […] The fluorescence intensity was then measured by flow cytometry, and the data were analyzed with Win MDI 2.9 software.
Influence of oxidant or antioxidant molecules on 19ak activity. […] The effects of NAC, Tu and DTT on the growth of 19ak treated fungal cells were measured using a time-growth curve. […] A microplate reader was used to measure the absorbance at600 nm, and the growth curves were plotted.

On to `C/C(=N\NC(=S)N(C)C)c1ccccn1` [Compound 19ak], for which the MIC came to 0.125 µg/mL (≈ 0.562 µM) in experiment [1]; 0.25 µg/mL in experiment [2] (SC5314, +1 mM H2O2); 0.5 µg/mL in experiment [2] (SC5314, +2 mM H2O2); 0.125 µg/mL in experiment [2] (SC5314, without H2O2). Moreover, in experiment [3], the “Mitochondrial dehydrogenase activity of C. albicans (CCK-8, absorbance at 450 nm)” value was “decreased accordingly in a dose-dependent manner”. Further, the “Effect of antioxidants NAC and Tu on antifungal activity (cell growth monitoring)” value in experiment [4] is “greatly enhanced the antifungal activity”.
